Source: patent US20240398725A1, “NANOPARTICLES FOR CANCER TREATMENT” (priority 2021, published 2024)

Key:
SW872 = experiment: MTS assay, doxorubicin IC50 in parental cell line SW872; format: cell-based; conditions: Homo sapiens
Excerpt: (§1) The dedifferentiated liposarcoma cell line (SW872) is one of the earliest STS model systems that has been extensively studied in preclinical investigations (Dodd 2010, Stratford 2012).
(§2) The SW872-DXR model was derived from the commercial cell line SW872. The resistance to doxorubicin was initiated in 2D cultures, by adding increased concentrations of doxorubicin every 2 weeks, starting from the IC50 concentrations of doxorubicin of the “parental” cell line SW872. The resistance of this cell line was verified by 3-(4,5-dimethylthiazol-2-yl)-5-(3-carboxymethoxyphenyl)-2-(4-sulfophenyl)-2H-tetrazolium (MTS) assay.

SW872-DXR = experiment: MTS assay, doxorubicin IC50 in doxorubicin-resistant SW872-DXR; format: cell-based; conditions: Homo sapiens
Excerpt: as §1, §2

Structure (SMILES): COc1cccc2c1C(=O)c1c(O)c3c(c(O)c1C2=O)C[C@@](O)(C(=O)CO)C[C@@H]3O[C@H]1C[C@H](N)[C@H](O)[C@H](C)O1 [doxorubicin]
- IC50 (SW872): ~200 nM
- IC50 (SW872-DXR): > 1000 nM
